The compound `Cc1cc(CN(C)c2cc(-c3ccc(Cl)cc3)nn2C)cc(C)c1OC(C)(C)C(=O)O` [Example 6, 2-[4-({[5-(4-Chloro-phenyl)-2-methyl-2H-pyrazol-3-yl]-methyl-amino}-methyl)-2,6-dimethyl-phenoxy]-2-methyl-propionic acid] showed a melting point of 158 °C.

`Cc1cc(CN(Cc2ccco2)c2sc(-c3ccc(C(F)(F)F)cc3)nc2C)ccc1OC(C)(C)C(=O)O` [Example 93, 2-Methyl-2-(2-methyl-4-{([4-methyl-2-(4-trifluoromethylphenyl)thiazol-5-yl]furan-2-ylmethylamino)methyl}phenoxy)propionic acid]: the melting point came out at 80 °C.

In turn, `Cc1cc(CN(Cc2ccc(F)cc2)c2cc(-c3ccc(C(F)(F)F)cc3)nn2C)cc(C)c1OC(C)(C)C(=O)O` [Example 14, 2-[4-({(4-Fluoro-benzyl)-[2-methyl-5-(4-trifluoromethyl-phenyl)-2H-pyrazol-3-yl]-amino}-methyl)-2,6-dimethyl-phenoxy]-2-methyl-propionic acid] registered a melting point above 90 °C. As to `Cc1cc(CN(Cc2cccs2)c2sc(-c3ccc(C(F)(F)F)cc3)nc2C)ccc1OC(C)(C)C(=O)O` [Example 91, 2-Methyl-2-(2-methyl-4-{([4-methyl-2-(4-trifluoromethylphenyl)thiazol-5-yl-]thiophen-2-ylmethylamino)methyl}phenoxy)propionic acid], the melting point turned out to be 100 °C. `Cc1cc(CN(Cc2ccsc2)c2sc(-c3ccc(C(F)(F)F)cc3)nc2C)cc(C)c1OC(C)(C)C(=O)O` [Example 2, 2-[2,6-Dimethyl-4-({[4-methyl-2-(4-trifluoromethyl-phenyl)-thiazol-5-yl]-thiophen-3-ylmethyl-amino}-methyl)-phenoxy]-2-methyl-propionic acid] displayed a melting point of 90 to 100 °C.

The values are drawn from patent US7241793B2, “Phenyloxyalkanonic acid derivatives as hPPAR activators” (SmithKline Beecham Corporation, priority 2002, dated 2007).
